Assay results as given in ChEMBL document CHEMBL5113463, “Discovery and preclinical evaluations of JBD0131, a novel nitrodihydro-imidazooxazole anti-tuberculosis agent” (Bioorg Med Chem Lett, 2022).
Values after ≈ are worked out from the molar mass of the structure shown.

Legend:
[1] = test system: Mycobacterium tuberculosis; assay: Antimycobacterial activity against clinical isolate drug susceptible Mycobacterium tuberculosis H37Rv assessed as bacterial growth inhibition; format: functional
[2] = test system: Mycobacterium tuberculosis; assay: Antimycobacterial activity against Mycobacterium tuberculosis H37Rv assessed as bacterial growth inhibition incubated for 10 days under hypoxic condition followed by 28 hrs incubation under normoxic condition by Low-Oxygen-Recovery Assay; format: functional; conditions: 264 h, time 11 day
[3] = Metabolic stability in human liver microsomes assessed as half life; format: ADME, Microsome
[4] = Metabolic stability in mouse liver microsomes assessed as half life; format: ADME, Microsome
[5] = Cytotoxicity against African green monkey vero cells assessed as reduction in cell viability; format: toxicity, cell-based; conditions: chlorocebus sabaeus
[6] = test system: Mycobacterium tuberculosis; assay: Antimycobacterial activity against Mycobacterium tuberculosis H37Rv assessed as bacterial growth inhibition incubated for 7 days by MABA assay; format: functional; conditions: 168 h, time 7 day
[7] = Metabolic stability in rat liver microsomes assessed as half life; format: ADME, Microsome
[8] = Cmax in CD-1 mouse at 5 mg/kg, po; format: ADME, organism-based; set-up: dose 5 mg/kg, route po; conditions: in vivo
[9] = AUC (0-last) in CD-1 mouse at 5 mg/kg, po; format: ADME, organism-based; set-up: dose 5 mg/kg, route po; conditions: in vivo; for AUC(0-t): CD-1, mouse
[10] = Volume of distribution in CD-1 mouse at 0.6 mg/kg, iv; format: ADME, organism-based; conditions: in vivo
[11] = Oral bioavailability in CD-1 mouse at 5 mg/kg; format: ADME, organism-based; conditions: in vivo; for bioavailability: CD-1, mouse
[12] = Half life in CD-1 mouse at 0.6 mg/kg, iv; format: ADME, organism-based; conditions: in vivo
[13] = Clearance in CD-1 mouse at 0.6 mg/kg, iv; format: ADME, organism-based; conditions: in vivo

Row | Structure (SMILES) | MIC50 [1] [µg/mL] | MIC90 [1] [µg/mL] | MIC [2] [µg/mL] | half-life [3] [min] | half-life [4] [min] | CC50 [5] [µg/mL] | MIC [6] [µg/mL] | half-life [7] [min] | Cmax [8] [ng/mL] | AUC(0-t) [9] [ng·h/mL] | Vd [10] [L/kg] | bioavailability [11] [%] | half-life [12] [min] | clearance [13] [mL/min/kg] | AUClast ([9]; mouse) [ng·h/mL] | F ([11]; mouse, po, 5 mg/kg) [%]
1 | NC[C@H]1O[C@H](O[C@H]2[C@H](O)[C@@H](O[C@H]3O[C@H](CO)[C@@H](O)[C@H](N)[C@H]3O)[C@H](N)C[C@@H]2N)[C@H](O)[C@@H](O)[C@@H]1O [KANAMYCIN] | 1.22 (≈ 2.52 µM) | 1.91 (≈ 3.94 µM) |  |  |  |  |  |  |  |  |  |  |  |  |  | 
2 | C[C@]1(CN2CCc3nc(-c4ccc(F)cc4)sc3CC2)Cn2cc([N+](=O)[O-])nc2O1 |  |  | > 8 | 15 | 7 | > 32 | 0.03 (≈ 0.0699 µM) | 8 |  |  |  |  |  |  |  | 
3 | C[C@]1(CN2Cc3nc(-c4ccc(F)cn4)sc3C2)Cn2cc([N+](=O)[O-])nc2O1 |  |  |  |  |  | > 32 | 0.03 (≈ 0.0746 µM) |  | 385 | 2920 | 2.02 | 24.5 | 103 | 12.7 |  | 
4 | C[C@]1(CN2Cc3nc(-c4ncc(F)cc4F)sc3C2)Cn2cc([N+](=O)[O-])nc2O1 |  |  |  |  |  | > 32 | 0.06 (≈ 0.143 µM) |  | 1010 | 4990 | 1.57 | 57.9 | 84 | 13.8 |  | 
5 | C[C@]1(CN2Cc3nc(-c4ccc(F)cc4)oc3C2)Cn2cc([N+](=O)[O-])nc2O1 |  |  |  | 59 | 43 | > 32 | 0.021 (≈ 0.0545 µM) | 39 |  |  |  |  |  |  |  | 
6 | C[C@]1(CN2Cc3nc(-c4ccc(F)cc4F)sc3C2)Cn2cc([N+](=O)[O-])nc2O1 |  |  |  |  |  | > 32 | < 0.013 |  | 182 |  | 2.66 |  | 185 |  | 1789 | 9.6
